Our source for the Ki values is patent publication US7408024B2, “Somatostatin antagonists” (The Administrators of the Tulane Educational Fund, priority 2001, dated 2008).

Where a SMILES comes first, the peptide text is derived from it. Bridges are numbered along the chain shown (N, C = ends). [ ]: non-standard residue; d: D form. Phe(4-Cl) = N[C@@H](Cc1ccc(Cl)cc1)C(=O)O; dNMeW = CN[C@H](Cc1c[nH]c2ccccc12)C(=O)O; Dip = N[C@H](C(=O)O)C(c1ccccc1)c1ccccc1; 2Nal = N[C@@H](Cc1ccc2ccccc2c1)C(=O)O; NMeT = CN[C@H](C(=O)O)[C@@H](C)O; 3Pal = N[C@@H](Cc1cccnc1)C(=O)O; NMeK = CN[C@@H](CCCCN)C(=O)O; NMeC = CN[C@@H](CS)C(=O)O; dNMeC = CN[C@H](CS)C(=O)O

One assay has as its target T1, hsst1 (Homo sapiens, UniProt P30872).
T1 construct: each containing the entire coding region of the full-length receptors; expressed in transfected cells
Briefly: Radioligand binding, cloned human sst1 receptor (CHO-K1 membranes). As to conditions: [125I]Tyr11-SRIF, CHO-K1 cell membranes; single values = one binding experiment; read-out: K1 ± SEM hsst1. The text has this:
(§1) The genomic clones containing the human somatostatin receptors (hsstr1-5) (Yamada, Y., et al. al., Proc. Natl. Acad. Sci. USA. 1992, 89, 251-255; Yasuda, K., et al., J. Biol. Chem. 1992, 267, 20422-20428; Yamada, Y., et al., Mol. Pharmacol. 1992, 42, 2136-2142; Rohrer, L., et al., Proc. Natl. Acad. Sci. USA. 1993, 90, 4196-4200.), were kindly provided by Dr. Graeme I. Bell (University of Chicago). The hsstr1, hsstr2, hsstr3, hsstr4 and hsstr5 cDNAs were isolated as a 1.5-kb PstI-XmnI fragment, 1.7-kb BamHI-HindIII fragment, 2.0-kb NcoI-HindIII fragment, 1.4-kb NheI-NdeI fragment, and a 1.2-kb HindIII-XbaI fragment, respectively, each containing the entire coding region of the full-length receptors. These fragments were independently subdloned into the corresponding restriction endonuclease sites in the mammalian expression vector pCMV5, downstream from the human cytomegalovirus (CMV) promoter, to produce the expression plasmids pCMV5/hsstr1, pCMV5/hsstr2, pCMV5/hsstr3, pCMV5/hsstr4 and pCMV5/hsstr5. For transfection into CHO-K1 cells, a plasmid, pRSV-neo (American Type Culture Collection, Rockville, Md.), carrying the neomycin mammalian cell selectable marker was added.
(§2) Transfections were performed by the calcium phosphate method. CHO-K1 cells are maintained in α-minimum essential medium (α-MEM; Gibco) supplemented with 10% fetal calf serum and transfected with each of the expression plasmids using calcium phosphate precipitation. Clones that had inherited the expression plasmid were selected in α-MEM supplemented with 500 μg mL^−1 of geneticin (G418; Gibco). Independent CHO-K1 clones were picked by glass-ring cloning and expanded in culture in the selective media. Membranes were prepared from the isolated clones and hsstr expression was initially assessed for binding with [^125I]Tyr^11-SRIF and [^125]IMK-678 (for sstr2).
(§3) Cell membranes of the 5 receptor types were obtained from homogenates (Polytron setting 6, 15 sec) of the corresponding CHO-K1 cells, in ice-cold Tris-HCl (50 mM) and centrifuged (39000 g, 10 min×2), with an intermediate resuspension in fresh buffer. The final pellets are resuspended in Tris-HCl (10 mM) for assay. Aliquots of the membranes are incubated (30 min at 37° C.) with 0.05 nM [^125I]Tyr^11-SRIF (types 1,3,4,5) or [^125I]MK-678 (type 2) in 50 mM HEPES (pH 7.4) containing BSA (10 mg mL^−1); MgCl2 (5 mM), Trasylol (200 kIU mL^−1), bacitracin (0.02 mg mL^−1), and phenylmethanesulfonyl fluoride (0.02 mg mL^−1). The final assay volume is 0.3 mL and incubations are terminated by rapid filtration through GF/C filters pre-soaked in 0.3% poly(ethylenimine) using a Brandel rapid filtration module. Each tube and filter is then washed with aliquots of cold buffer (3×5 mL).
(§4) Specific binding is. defined as the total radioligand bound minus that bound in the presence of 1.0 μM SRIF.

The target of a further assay is T2, hsst2 (Homo sapiens, UniProt P30874).
T2 construct: each containing the entire coding region of the full-length receptors; expressed in transfected cells
The assay can be described thus: Radioligand binding, cloned human sst2 receptor (CHO-K1 membranes). The note with it: [125I]MK-678, CHO-K1 cell membranes; single values = one binding experiment; read-out: K1 ± SEM hsst2.
Description: as §1, §2, §3, §4

A further assay deals with T3, hsst3 (Homo sapiens, UniProt P32745).
T3 construct: each containing the entire coding region of the full-length receptors; expressed in transfected cells
Briefly: Radioligand binding, cloned human sst3 receptor (CHO-K1 membranes). The note with it: [125I]Tyr11-SRIF, CHO-K1 cell membranes; single values = one binding experiment; read-out: K1 ± SEM hsst3.
Description: as §1, §2, §3, §4

The target in the next assay is T4, hsst4 (Homo sapiens, UniProt P31391).
T4 construct: each containing the entire coding region of the full-length receptors; expressed in transfected cells
Briefly: Radioligand binding, cloned human sst4 receptor (CHO-K1 membranes). As to conditions: [125I]Tyr11-SRIF, CHO-K1 cell membranes; single values = one binding experiment; read-out: K1 ± SEM hsst4.
Description: as §1, §2, §3, §4

Another assay deals with T5, hsst5 (Homo sapiens, UniProt P35346).
T5 construct: each containing the entire coding region of the full-length receptors; expressed in transfected cells
Briefly: Radioligand binding, cloned human sst5 receptor (CHO-K1 membranes). The note with it: [125I]Tyr11-SRIF, CHO-K1 cell membranes; single values = one binding experiment; read-out: K1 ± SEM hsst5.
Description: as §1, §2, §3, §4

T4 sequence (P31391 whole entry): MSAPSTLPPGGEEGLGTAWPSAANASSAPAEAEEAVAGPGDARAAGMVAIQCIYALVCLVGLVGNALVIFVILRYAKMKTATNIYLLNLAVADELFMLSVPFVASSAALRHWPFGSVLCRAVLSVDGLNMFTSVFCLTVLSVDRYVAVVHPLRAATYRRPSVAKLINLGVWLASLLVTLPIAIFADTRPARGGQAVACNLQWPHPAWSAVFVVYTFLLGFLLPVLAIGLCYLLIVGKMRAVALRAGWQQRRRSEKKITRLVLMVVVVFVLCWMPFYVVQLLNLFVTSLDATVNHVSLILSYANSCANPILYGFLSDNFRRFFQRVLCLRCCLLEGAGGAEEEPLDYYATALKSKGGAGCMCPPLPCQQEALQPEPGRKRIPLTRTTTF
T3 sequence (P32745 whole entry): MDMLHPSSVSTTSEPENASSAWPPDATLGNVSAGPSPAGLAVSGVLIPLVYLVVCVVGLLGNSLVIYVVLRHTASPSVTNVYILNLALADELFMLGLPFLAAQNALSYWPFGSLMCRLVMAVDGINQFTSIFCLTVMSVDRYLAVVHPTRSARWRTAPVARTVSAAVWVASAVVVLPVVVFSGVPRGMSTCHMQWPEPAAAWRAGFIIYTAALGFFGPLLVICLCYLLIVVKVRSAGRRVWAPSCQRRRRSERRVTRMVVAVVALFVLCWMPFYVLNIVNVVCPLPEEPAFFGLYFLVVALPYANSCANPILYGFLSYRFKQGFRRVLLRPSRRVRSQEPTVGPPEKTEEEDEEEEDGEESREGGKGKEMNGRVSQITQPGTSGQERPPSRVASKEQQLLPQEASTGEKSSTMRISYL
T1 sequence (P30872 whole entry): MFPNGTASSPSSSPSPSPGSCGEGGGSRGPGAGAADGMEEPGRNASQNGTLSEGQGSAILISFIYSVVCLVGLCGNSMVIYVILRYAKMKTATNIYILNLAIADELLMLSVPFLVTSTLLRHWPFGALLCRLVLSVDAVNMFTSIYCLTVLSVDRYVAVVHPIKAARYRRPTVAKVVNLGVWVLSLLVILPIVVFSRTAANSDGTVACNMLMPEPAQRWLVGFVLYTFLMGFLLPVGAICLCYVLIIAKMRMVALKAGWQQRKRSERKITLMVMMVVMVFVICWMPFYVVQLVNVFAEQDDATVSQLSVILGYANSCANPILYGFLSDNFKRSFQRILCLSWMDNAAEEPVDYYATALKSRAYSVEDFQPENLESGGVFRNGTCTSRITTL
T2 sequence (P30874 whole entry): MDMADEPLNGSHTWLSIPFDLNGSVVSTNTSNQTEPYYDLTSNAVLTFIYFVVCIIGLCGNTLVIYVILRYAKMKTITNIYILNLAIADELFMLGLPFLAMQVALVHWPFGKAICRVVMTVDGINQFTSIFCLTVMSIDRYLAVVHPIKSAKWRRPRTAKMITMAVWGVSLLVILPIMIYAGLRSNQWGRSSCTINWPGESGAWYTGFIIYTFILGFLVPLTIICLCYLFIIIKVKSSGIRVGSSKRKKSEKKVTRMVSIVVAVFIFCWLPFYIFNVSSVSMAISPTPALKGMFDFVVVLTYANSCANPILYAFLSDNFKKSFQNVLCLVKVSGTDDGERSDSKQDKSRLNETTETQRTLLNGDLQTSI
T5 sequence (P35346 whole entry): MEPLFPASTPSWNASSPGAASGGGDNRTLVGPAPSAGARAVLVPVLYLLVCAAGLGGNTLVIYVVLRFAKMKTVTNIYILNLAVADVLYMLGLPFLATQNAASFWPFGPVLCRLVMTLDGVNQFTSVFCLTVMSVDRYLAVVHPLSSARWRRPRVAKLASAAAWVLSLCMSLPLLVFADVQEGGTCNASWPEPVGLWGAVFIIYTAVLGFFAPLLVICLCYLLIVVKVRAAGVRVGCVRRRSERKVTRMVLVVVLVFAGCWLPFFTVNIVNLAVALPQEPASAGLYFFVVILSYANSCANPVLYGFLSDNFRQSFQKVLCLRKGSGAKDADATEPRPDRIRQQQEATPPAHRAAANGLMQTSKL

As for `CNC(=O)[C@H](Cc1ccc2ccccc2c1)NC(=O)[C@@H]1CSSC[C@@H](N(C)C(=O)[C@@H](N)Cc2ccc(Cl)cc2)C(=O)N[C@@H](Cc2cccnc2)C(=O)N[C@H](Cc2c[nH]c3ccccc23)C(=O)N[C@@H](CCCCN)C(=O)N[C@@H]([C@@H](C)O)C(=O)N1` [Peptide 2, Cpa-cyclo(NmeDCys-3-Pal-DTrp-Lys-Thr-Cys)-2-Nal-NHMe] (H-[Phe(4-Cl)][dNMeC][3Pal][dW]KTC[2Nal]-NHMe; disulfide 2-7), the Ki on hsst1 turned out to be 1000 nM; at hsst2 it was 89 ± 8 nM; on hsst3 it was 576 ± 47 nM; at hsst4 it was 1000 nM; at hsst5, 106 ± 36 nM.
In the case of `C[C@@H](O)[C@@H]1NC(=O)[C@H](CCCCN)NC(=O)[C@@H](Cc2c[nH]c3ccccc23)NC(=O)[C@H](Cc2cccnc2)N(C)C(=O)[C@H](NC(=O)[C@@H](N)Cc2ccc(Cl)cc2)CSSC[C@@H](C(=O)N[C@@H](Cc2ccc3ccccc3c2)C(N)=O)NC1=O` [Peptide 3, Cpa-cyclo(DCys-Nme3-Pal-DTrp-Lys-Thr-Cys)-2-Nal-NH2], the values for the Ki at hsst2 and at hsst3 were 189 ± 35 nM and 450 ± 132 nM, respectively.
Regarding `C[C@@H](O)[C@@H]1NC(=O)[C@H](CCCCN)NC(=O)[C@@H](Cc2c[nH]c3ccccc23)N(C)C(=O)[C@H](Cc2cccnc2)NC(=O)[C@H](NC(=O)[C@@H](N)Cc2ccc(Cl)cc2)CSSC[C@@H](C(=O)N[C@@H](Cc2ccc3ccccc3c2)C(N)=O)NC1=O` [Peptide 4, Cpa-cyclo(DCys-3-Pal-NMeDTrp-Lys-Thr-Cys)-2-Nal-NH2] (H-[Phe(4-Cl)][dC][3Pal][dNMeW]KTC[2Nal]-NH2; disulfide 2-7), the Ki at hsst2 came to 51.8 ± 2.6 nM; on hsst3 it was 390 ± 114 nM; on hsst5, 93 ± 17.7 nM.
For `C[C@@H](O)[C@@H]1NC(=O)[C@H](CCCCN)N(C)C(=O)[C@@H](Cc2c[nH]c3ccccc23)NC(=O)[C@H](Cc2cccnc2)NC(=O)[C@H](NC(=O)[C@@H](N)Cc2ccc(Cl)cc2)CSSC[C@@H](C(=O)N[C@@H](Cc2ccc3ccccc3c2)C(N)=O)NC1=O` [Peptide 5, Cpa-cyclo(DCys-3-Pal-DTrp-NMeLys-Thr-Cys)-2-Nal-NH2] (H-[Phe(4-Cl)][dC][3Pal][dW][NMeK]TC[2Nal]-NH2; disulfide 2-7) the same measures were 17.1 ± 5.5 nM, 66 ± 5.8 nM and 5.98 ± 0.91 nM.
In the case of `C[C@@H](O)[C@H]1C(=O)N[C@H](C(=O)N[C@@H](Cc2ccc3ccccc3c2)C(N)=O)CSSC[C@@H](NC(=O)[C@@H](N)Cc2ccc(Cl)cc2)C(=O)N[C@@H](Cc2cccnc2)C(=O)N[C@H](Cc2c[nH]c3ccccc23)C(=O)N[C@@H](CCCCN)C(=O)N1C` [Peptide 6, Cpa-cyclo(DCys-3-Pal-DTrp-Lys-NMeThr-Cys)-2-Nal-NH2] (H-[Phe(4-Cl)][dC][3Pal][dW]K[NMeT]C[2Nal]-NH2; disulfide 2-7), the Ki at hsst1 turned out to be 395 ± 202 nM; on hsst2, 1000 nM; at hsst3, 315 ± 12.5 nM; on hsst4 it was 1000 nM.
Take `C[C@@H](O)[C@@H]1NC(=O)[C@H](CCCCN)NC(=O)[C@@H](Cc2c[nH]c3ccccc23)NC(=O)[C@H](Cc2cccnc2)NC(=O)[C@H](NC(=O)[C@@H](N)Cc2ccc(Cl)cc2)CSSC[C@@H](C(=O)N[C@@H](Cc2ccc3ccccc3c2)C(N)=O)N(C)C1=O` [Peptide 7, Cpa-cyclo(DCys-3-Pal-DTrp-Lys-Thr-NmeCys)-2-Nal-NH2] (H-[Phe(4-Cl)][dC][3Pal][dW]KT[NMeC][2Nal]-NH2; disulfide 2-7): the results for the Ki at hsst2, on hsst3 and at hsst4 were 810 nM, 68.7 ± 4.7 nM and 575 nM, respectively.
For `C[C@@H](O)[C@@H]1NC(=O)[C@H](CCCCN)NC(=O)[C@@H](Cc2c[nH]c3ccccc23)NC(=O)[C@H](Cc2cccnc2)NC(=O)[C@H](NC(=O)[C@@H](N)Cc2ccc(Cl)cc2)CSSC[C@@H](C(=O)N[C@@H](Cc2ccc3ccccc3c2)C(N)=O)NC1=O` [Peptide 9, Cpa-cyclo(DCys-3-Pal-DTrp-Lys-Thr-Cys)-Nal-NH2] the same measures were 12.1 ± 1.9 nM, 38.2 ± 2.4 nM and 1000 nM.
Consider `CNC(=O)[C@@H](NC(=O)[C@@H]1CSSC[C@@H](N(C)C(=O)[C@@H](N)Cc2ccc(Cl)cc2)C(=O)N[C@@H](Cc2cccnc2)C(=O)N[C@H](Cc2c[nH]c3ccccc23)C(=O)N[C@@H](CCCCN)C(=O)N[C@@H]([C@@H](C)O)C(=O)N1)C(c1ccccc1)c1ccccc1` [Peptide 10, Cpa-cyclo(NMeDCys-3-Pal-DTrp-Lys-Thr-Cys)-Dip-NHMe] (H-[Phe(4-Cl)][dNMeC][3Pal][dW]KTC[Dip]-NHMe; disulfide 2-7), for which the Ki on hsst1 is 1000 nM; on hsst2, 117 ± 24.6 nM; at hsst3, 584 ± 305 nM; at hsst4 it was 1000 nM; on hsst5, 766 ± 110 nM.
`C[C@@H](O)[C@@H]1NC(=O)[C@H](CCCCN)N(C)C(=O)[C@@H](Cc2c[nH]c3ccccc23)NC(=O)[C@H](Cc2cccnc2)NC(=O)[C@H](NC(=O)[C@@H](N)Cc2ccc(Cl)cc2)CSSC[C@@H](C(=O)N[C@H](Cc2c[nH]c3ccccc23)C(N)=O)NC1=O` [Peptide 14, Cpa-cyclo(DCys-3-Pal-DTrp-NMeLys-Thr-Cys)-DTrp-NH2] (H-[Phe(4-Cl)][dC][3Pal][dW][NMeK]TC[dW]-NH2; disulfide 2-7): the results for the Ki on hsst2 and on hsst3 were 5.45 ± 0.3 nM and 91.4 ± 11.9 nM, respectively.
Take `C[C@@H](O)[C@@H]1NC(=O)[C@H](CCCCN)N(C)C(=O)[C@@H](Cc2c[nH]c3ccccc23)NC(=O)[C@H](Cc2cccnc2)NC(=O)[C@H](NC(=O)[C@@H](N)Cc2ccc3ccccc3c2)CSSC[C@@H](C(=O)N[C@H](Cc2c[nH]c3ccccc23)C(N)=O)NC1=O` [Peptide 15, Nal-cyclo(DCys-3-Pal-DTrp-NMeLys-Thr-Cys)-DTrp-NH2] (H-[2Nal][dC][3Pal][dW][NMeK]TC[dW]-NH2; disulfide 2-7): the Ki on hsst1 was determined as 1000 nM; at hsst2 it was 27.3 ± 1.45 nM; at hsst4, 1000 nM; on hsst5, 176 ± 65.1 nM.
As to `C[C@@H](O)[C@@H]1NC(=O)[C@H](CCCCN)N(C)C(=O)[C@@H](Cc2c[nH]c3ccccc23)NC(=O)[C@H](Cc2cccnc2)NC(=O)[C@H](NC(=O)[C@@H](N)Cc2cccnc2)CSSC[C@@H](C(=O)N[C@H](Cc2c[nH]c3ccccc23)C(N)=O)NC1=O` [Peptide 16, 3-Pal-cyclo(DCys-3-Pal-DTrp-NMeLys-Thr-Cys)-DTrp-NH2] (H-[3Pal][dC][3Pal][dW][NMeK]TC[dW]-NH2; disulfide 2-7), the Ki on hsst2 was 24.7 ± 1.61 nM; on hsst3 it was 537 ± 44.8 nM; on hsst5, 313 ± 4.1 nM.
